Data: publication PMC4628894 (Bioorganic & medicinal chemistry letters, 2015)
Read-outs that look alike come from different tables or passages of the source.

Legend:
human CRF1 receptor = biological target: T1, human CRF1 receptor (Homo sapiens, UniProt P34998); format: binding; settings: for fold increase in binding affinity at CRF1 relative to 21: compared to compound 21; for fold loss of binding affinity at CRF1 relative to 2: compared to compound 2; for fold gain in binding affinity at CRF1 relative to 17: compared to compound 17
T1 sequence (P34998 24-415): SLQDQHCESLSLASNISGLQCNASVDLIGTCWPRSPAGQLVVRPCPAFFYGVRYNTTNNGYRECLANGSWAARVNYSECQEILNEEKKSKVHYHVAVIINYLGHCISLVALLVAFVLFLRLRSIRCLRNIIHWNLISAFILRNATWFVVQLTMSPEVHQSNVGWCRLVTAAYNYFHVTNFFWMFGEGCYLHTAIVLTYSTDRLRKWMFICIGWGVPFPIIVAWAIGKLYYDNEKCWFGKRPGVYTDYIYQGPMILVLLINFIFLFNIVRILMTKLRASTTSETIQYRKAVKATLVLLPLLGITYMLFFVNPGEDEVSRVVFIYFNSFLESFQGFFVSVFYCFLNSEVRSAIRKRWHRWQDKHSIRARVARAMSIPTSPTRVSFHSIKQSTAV

rat brain CRF1 receptor = settings: read-out: IC50, rat brain CRF1 receptor; previous report; cited from earlier work
CRF1 receptor = settings: read-out: Ki for the CRF1 receptor, previously reported, cited from earlier work

| SMILES | fold increase in binding affinity at CRF1 relative to 21 (human CRF1 receptor) | IC50 (rat brain CRF1 receptor) [nM] | further results |
| --- | --- | --- | --- |
| CCN(CC)c1cc(C)nc2c1N(CCF)C(=O)CN2c1ccc(C(C)C)cc1Br [Compound 22] | ~ 8 fold |  |  |
| CCCCN(CC)c1cc(C)nc2c1NC(=O)CN2c1ccc(Cl)cc1Cl [Compound 6] |  | 0.49 |  |
| CCN(C)c1cc(C)nc2c1NC(=O)CN2c1ccc(C(C)C)cc1Br [Compound 18] |  |  | fold loss of binding affinity at CRF1 relative to 2 (human CRF1 receptor): ~ 6.8 fold; fold gain in binding affinity at CRF1 relative to 17 (human CRF1 receptor): ~ 11 fold |
| CCCCN(CC)c1cc(C)nc2c1NC(=O)CN2c1ccc(OC)cc1C [Compound 9] |  | 0.92 |  |
| CCCCN(CC)c1cc(C)nc2c1NC(=O)CN2c1ccc(C(C)C)cc1Br [Compound 2] |  | 0.7 |  |
| Cc1cc(N(C)C)c2c(n1)N(c1ccc(C(C)C)cc1Br)CC(=O)N2CCF [Compound 21] |  |  | fold gain in binding affinity at CRF1 relative to 17 (human CRF1 receptor): ~ 3 fold |
| Cc1cc(N(C)C)c2c(n1)N(c1ccc(C(C)C)cc1Br)CC(=O)N2CCCCF [Compound 24] | ~ 2.7 fold |  |  |
| CCCN(CCC)c1cc(C)nc2c(-c3cnc(N(C)C)cc3C)c(C)nn12 [Compound R121919] |  |  | Ki (CRF1 receptor; ref 26): 3.5 nM; Ki (CRF1 receptor; ref 27): 3 ± 0.16 nM |
| Cc1cc(N(C)C)c2c(n1)N(c1ccc(C(C)C)cc1Br)CC(=O)N2 [Compound 17] |  |  | fold loss of binding affinity at CRF1 relative to 2 (human CRF1 receptor): ~ 75 fold |
| Cc1cc(N(C)C)c2c(n1)N(c1ccc(C(C)C)cc1Br)CC(=O)N2C/C=C/CF [Compound 23] | ~ 4 fold |  |  |
